The values below come from ChEMBL document CHEMBL4507314 (2021).

As a reminder, the IC50 is the midpoint of a concentration-inhibition curve.

Molecules are shown by their SMILES. Activity calls are given as the source filed them. The calls are words filed in the database; no cut-off is given here. Bounds are passed on as bounds.

Assay [1] addresses Mitogen-activated protein kinase 14 (Homo sapiens, UniProt Q16539). As to the kind of experiment: NanoBRET (MAPK14). On the technique in general: Bioluminescence resonance energy transfer reports proximity on the nanometre scale.
Assay [2] addresses Mitogen-activated protein kinase 11 (Homo sapiens, UniProt Q15759). The assay can be described thus: NanoBRET (MAPK11).
Assay [3] deals with Heat shock protein beta-1 (Homo sapiens, UniProt P04792). The assay can be described thus: Inhibition of HSP27 (Ser82) (Western blot). (In general: Immunoblotting shows a protein as a band on a membrane.)
Sequence of Heat shock protein beta-1 (P04792 whole entry): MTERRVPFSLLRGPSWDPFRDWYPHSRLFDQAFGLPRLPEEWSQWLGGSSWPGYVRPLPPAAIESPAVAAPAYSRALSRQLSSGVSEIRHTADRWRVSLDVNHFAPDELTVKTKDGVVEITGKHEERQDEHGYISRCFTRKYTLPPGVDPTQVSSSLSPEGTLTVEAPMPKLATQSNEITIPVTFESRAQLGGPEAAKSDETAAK

Sequence of Mitogen-activated protein kinase 11 (Q15759 whole entry): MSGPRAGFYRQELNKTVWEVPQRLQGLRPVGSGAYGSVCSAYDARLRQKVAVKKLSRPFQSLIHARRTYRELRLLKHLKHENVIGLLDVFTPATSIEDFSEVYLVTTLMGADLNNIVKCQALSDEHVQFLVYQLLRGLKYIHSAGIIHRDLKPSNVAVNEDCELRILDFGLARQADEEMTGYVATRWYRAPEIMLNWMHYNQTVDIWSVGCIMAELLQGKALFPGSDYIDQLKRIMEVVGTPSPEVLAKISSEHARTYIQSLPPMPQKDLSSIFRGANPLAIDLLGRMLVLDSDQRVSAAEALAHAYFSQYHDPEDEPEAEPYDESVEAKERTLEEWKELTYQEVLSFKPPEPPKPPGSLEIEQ
Sequence of Mitogen-activated protein kinase 14 (Q16539 whole entry): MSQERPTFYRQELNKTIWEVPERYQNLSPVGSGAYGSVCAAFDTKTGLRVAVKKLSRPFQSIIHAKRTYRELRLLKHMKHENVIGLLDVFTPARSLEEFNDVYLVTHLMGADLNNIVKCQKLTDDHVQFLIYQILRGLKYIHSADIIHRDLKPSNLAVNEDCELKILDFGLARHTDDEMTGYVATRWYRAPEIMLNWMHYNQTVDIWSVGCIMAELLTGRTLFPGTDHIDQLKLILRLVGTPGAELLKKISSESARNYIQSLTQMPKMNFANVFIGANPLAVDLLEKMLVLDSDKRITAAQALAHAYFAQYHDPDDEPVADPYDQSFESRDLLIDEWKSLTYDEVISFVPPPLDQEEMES

Take `CN(C(=O)c1ccccc1)c1cc(N(C)c2ccc3c(c2)CCc2ccc(C(=O)NCCN4CCOCC4)cc2C3=O)ccc1F` [FM-743]: the results for the IC50 in assay [1] and in assay [2] were 11.3 µM (not active) and 16.2 µM (not active), respectively.
As to `O=C(NCCN1CCOCC1)c1ccc2c(c1)C(=O)c1ccc(Nc3ccc(F)c(NC(=O)c4ccccc4)c3)cc1CC2` [FS-694], the values for the IC50 in assay [2] and in assay [3] were 0.0169 µM (active) and < 1 µM (active), respectively.
